The results in this text go back to ChEMBL document CHEMBL3603789, “N-Lipidated Peptide Dimers: Effective Antibacterial Agents against Gram-Negative Pathogens through Lipopolysaccharide Permeabilization” (J Med Chem, 2015).

In brackets after ≈: the same amount, converted by molar mass. Peptide text beside a SMILES is read from it. * marks the point of attachment. Myristoyl = CCCCCCCCCCCCCC(=O)*; Lauroyl = CCCCCCCCCCCC(=O)*; Decanoyl = CCCCCCCCCC(=O)*; Hexanoyl = CCCCCC(=O)*; Butyryl = CCCC(=O)*

For data set [1], the system named is Klebsiella pneumoniae. Kind of data set: Antibacterial activity against Klebsiella pneumoniae DM4299 after 24 hrs by broth microdilution method. Format: functional. Particulars: DM4299, 24 h. For orientation: Dilution methods test growth across graded concentrations, often in twofold steps.
Data set [2] concerns Pseudomonas aeruginosa. Kind of data set: Antibacterial activity against Pseudomonas aeruginosa DM23155 after 24 hrs by broth microdilution method. The format is functional. Particulars: DM23155, 24 h.
The nature of data set [3]: Toxicity in New Zealand white rabbit erythrocytes assessed as hemolytic activity after 60 mins. The format is cell-based, Oryctolagus cuniculus. The conditions noted are these: erythrocyte, 1 h.
Data set [4] concerns Escherichia coli. Kind of data set: Antibacterial activity against Escherichia coli ATCC 25922 after 24 hrs by broth microdilution method. The format is functional. Particulars: ATCC 25922, 24 h.
Data set [5] relates to Lipopolysaccharide (LPS). Kind of data set: Induction of Escherichia coli 0111:B4 LPS neutralization using p-nitroaniline assessed as concentration required to neutralize 50% after 1 hr by limulus amebocyte lysate assay.
For data set [6], the system named is Lipopolysaccharide (LPS). The data set is described as follows: Displacement of dansylcadaverine from Escherichia coli 0111:B4 LPS at 15 to 30 uM after 5 mins by high-throughput fluorescence displacement assay.

Take `CCCCCCCCCCCCCC(=O)N[C@@H](CCCNC(=N)N)C(=O)NCC(=O)N[C@@H](CCCNC(=N)N)C(=O)N[C@@H](CCCCN)C(=O)NCC(=O)NCC(=O)N[C@@H](CCCNC(=N)N)C(=O)N[C@@H](CCCNC(=N)N)C(=O)N[C@@H](CCCCN)C(=O)N[C@@H](CCCCN)C(=O)O` (Myristoyl-RGRKGGRRKK-OH): the MIC (in general, the smallest concentration in the dilution series that meets the test's criterion for growth inhibition) in data set [1] was 10 µM (≈ 14.1 µg/mL); in data set [2] it was 6 µM (≈ 8.45 µg/mL); in data set [4], 6 µM (≈ 8.45 µg/mL). The HC10 in data set [3] is 6670 µg/mL.
On to `CCCC(=O)N[C@@H](CCCNC(=N)N)C(=O)NCC(=O)N[C@@H](CCCNC(=N)N)C(=O)N[C@@H](CCCCN)C(=O)N[C@H](C(=O)N[C@H](C(=O)N[C@@H](CCCNC(=N)N)C(=O)N[C@@H](CCCNC(=N)N)C(=O)N[C@@H](CCCCN)C(=O)N[C@@H](CCCCN)C(=O)O)C(C)C)C(C)C` (Butyryl-RGRKVVRRKK-OH), for which the values for the MIC in data set [1], in data set [2] and in data set [4] were more than 80 µM, more than 80 µM and 40 µM (≈ 54.1 µg/mL), respectively. Further, in data set [3], the HC10 was more than 10000 µg/mL.
Regarding `CCCCCCCCCCCCCC(=O)N[C@@H](CCCNC(=N)N)C(=O)NCC(=O)N[C@@H](CCCNC(=N)N)C(=O)N[C@@H](CCCCN)C(=O)N[C@H](C(=O)N[C@H](C(=O)N[C@@H](CCCNC(=N)N)C(=O)N[C@@H](CCCNC(=N)N)C(=O)N[C@@H](CCCCN)C(=O)N[C@@H](CCCCN)C(=O)O)C(C)C)C(C)C` (Myristoyl-RGRKVVRRKK-OH), the MIC in data set [1] is 6 µM (≈ 8.96 µg/mL); in data set [2], 10 µM (≈ 14.9 µg/mL); in data set [4], 6 µM (≈ 8.96 µg/mL). In addition, the HC10 in data set [3] is 8897 µg/mL.
In the case of `CC(C)[C@H](NC(=O)[C@H](CCCCN)NC(=O)[C@H](CCCNC(=N)N)NC(=O)CNC(=O)[C@@H](N)CCCNC(=N)N)C(=O)N[C@H](C(=O)N[C@@H](CCCNC(=N)N)C(=O)N[C@@H](CCCNC(=N)N)C(=O)N[C@@H](CCCCN)C(=O)N[C@@H](CCCCN)C(=O)O)C(C)C` (H-RGRKVVRRKK-OH), the MIC in data set [1] was more than 80 µM; in data set [2], 80 µM (≈ 103 µg/mL); in data set [4] it was 10 µM (≈ 12.8 µg/mL). Also, the HC10 in data set [3] was more than 10000 µg/mL.
The matching figures for `CCCCCCCCCCCC(=O)N[C@@H](CCCNC(=N)N)C(=O)NCC(=O)N[C@@H](CCCNC(=N)N)C(=O)N[C@@H](CCCCN)C(=O)NCC(=O)NCC(=O)N[C@@H](CCCNC(=N)N)C(=O)N[C@@H](CCCNC(=N)N)C(=O)N[C@@H](CCCCN)C(=O)N[C@@H](CCCCN)C(=O)O` (Lauroyl-RGRKGGRRKK-OH): 10 µM (≈ 13.8 µg/mL), 6 µM (≈ 8.28 µg/mL), 6 µM (≈ 8.28 µg/mL) and 8602 µg/mL.
On to `CCCC(=O)N[C@@H](CCCNC(=N)N)C(=O)NCC(=O)N[C@@H](CCCNC(=N)N)C(=O)N[C@@H](CCCCN)C(=O)NCC(=O)NCC(=O)N[C@@H](CCCNC(=N)N)C(=O)N[C@@H](CCCNC(=N)N)C(=O)N[C@@H](CCCCN)C(=O)N[C@@H](CCCCN)C(=O)O` (Butyryl-RGRKGGRRKK-OH), for which the minimum inhibitory concentration (MIC) in data set [1] amounted to 80 µM (≈ 101 µg/mL); in data set [2] it was 80 µM (≈ 101 µg/mL); in data set [4], 40 µM (≈ 50.7 µg/mL). The HC10 in data set [3] was more than 10000 µg/mL.
For `CCCCCCCCCCCC(=O)N[C@@H](CCCNC(=N)N)C(=O)NCC(=O)N[C@@H](CCCNC(=N)N)C(=O)N[C@@H](CCCCN)C(=O)N[C@H](C(=O)N[C@H](C(=O)N[C@@H](CCCNC(=N)N)C(=O)N[C@@H](CCCNC(=N)N)C(=O)N[C@@H](CCCCN)C(=O)N[C@@H](CCCCN)C(=O)O)C(C)C)C(C)C` (Lauroyl-RGRKVVRRKK-OH), the values for the minimal inhibitory concentration (MIC) in data set [1], in data set [2] and in data set [4] were 20 µM (≈ 29.3 µg/mL), 10 µM (≈ 14.6 µg/mL) and 6 µM (≈ 8.79 µg/mL), respectively. The HC10 in data set [3] is more than 10000 µg/mL.
The matching figures for `CC(=O)N[C@@H](CCCNC(=N)N)C(=O)NCC(=O)N[C@@H](CCCNC(=N)N)C(=O)N[C@@H](CCCCN)C(=O)NCC(=O)NCC(=O)N[C@@H](CCCNC(=N)N)C(=O)N[C@@H](CCCNC(=N)N)C(=O)N[C@@H](CCCCN)C(=O)N[C@@H](CCCCN)C(=O)O` (Ac-RGRKGGRRKK-OH): more than 80 µM, more than 80 µM, 20 µM (≈ 24.8 µg/mL) and more than 10000 µg/mL.
The matching figures for `N=C(N)NCCC[C@H](NC(=O)CNC(=O)[C@@H](N)CCCNC(=N)N)C(=O)N[C@@H](CCCCN)C(=O)NCC(=O)NCC(=O)N[C@@H](CCCNC(=N)N)C(=O)N[C@@H](CCCNC(=N)N)C(=O)N[C@@H](CCCCN)C(=O)N[C@@H](CCCCN)C(=O)O` (H-RGRKGGRRKK-OH): more than 80 µM, more than 80 µM, 20 µM (≈ 24 µg/mL) and more than 10000 µg/mL.
For the molecule `CCCCCCCCCC(=O)N[C@@H](CCCNC(=N)N)C(=O)NCC(=O)N[C@@H](CCCNC(=N)N)C(=O)N[C@@H](CCCCN)C(=O)N[C@H](C(=O)N[C@H](C(=O)N[C@@H](CCCNC(=N)N)C(=O)N[C@@H](CCCNC(=N)N)C(=O)N[C@@H](CCCCN)C(=O)N[C@@H](CCCCN)C(=O)O)C(C)C)C(C)C` (Decanoyl-RGRKVVRRKK-OH), the half-maximal effective concentration (EC50) (commonly the concentration giving half of the maximal effect) in data set [5] was 566 µM. Also, the MIC was found to be 80 µM (≈ 115 µg/mL) in data set [1], 20 µM (≈ 28.7 µg/mL) in data set [2] and 6 µM (≈ 8.62 µg/mL) in data set [4]. For the same molecule, the Activity in data set [6] worked out at 78%. In data set [3], the HC10 was more than 10000 µg/mL.
For `CCCCCC(=O)N[C@@H](CCCNC(=N)N)C(=O)NCC(=O)N[C@@H](CCCNC(=N)N)C(=O)N[C@@H](CCCCN)C(=O)NCC(=O)NCC(=O)N[C@@H](CCCNC(=N)N)C(=O)N[C@@H](CCCNC(=N)N)C(=O)N[C@@H](CCCCN)C(=O)N[C@@H](CCCCN)C(=O)O` (Hexanoyl-RGRKGGRRKK-OH), the MIC in data set [1] was more than 80 µM; in data set [2], more than 80 µM; in data set [4], 20 µM (≈ 25.9 µg/mL). For the same molecule, in data set [3], the HC10 is more than 10000 µg/mL.
Turning to `CCCCCC(=O)N[C@@H](CCCNC(=N)N)C(=O)NCC(=O)N[C@@H](CCCNC(=N)N)C(=O)N[C@@H](CCCCN)C(=O)N[C@H](C(=O)N[C@H](C(=O)N[C@@H](CCCNC(=N)N)C(=O)N[C@@H](CCCNC(=N)N)C(=O)N[C@@H](CCCCN)C(=O)N[C@@H](CCCCN)C(=O)O)C(C)C)C(C)C` (Hexanoyl-RGRKVVRRKK-OH), the minimal inhibitory concentration (MIC) in data set [1] came out at 80 µM (≈ 110 µg/mL); in data set [2], 80 µM (≈ 110 µg/mL); in data set [4] it was 10 µM (≈ 13.8 µg/mL). Further, the HC10 in data set [3] was more than 10000 µg/mL.
With `CC(=O)N[C@@H](CCCNC(=N)N)C(=O)NCC(=O)N[C@@H](CCCNC(=N)N)C(=O)N[C@@H](CCCCN)C(=O)N[C@H](C(=O)N[C@H](C(=O)N[C@@H](CCCNC(=N)N)C(=O)N[C@@H](CCCNC(=N)N)C(=O)N[C@@H](CCCCN)C(=O)N[C@@H](CCCCN)C(=O)O)C(C)C)C(C)C` (Ac-RGRKVVRRKK-OH), the figures for the minimum inhibitory concentration (MIC) in data set [1], in data set [2] and in data set [4] were more than 80 µM, more than 80 µM and 40 µM (≈ 53 µg/mL), respectively. Moreover, the HC10 in data set [3] is more than 10000 µg/mL.
`CCCCCCCCCC(=O)N[C@@H](CCCNC(=N)N)C(=O)NCC(=O)N[C@@H](CCCNC(=N)N)C(=O)N[C@@H](CCCCN)C(=O)NCC(=O)NCC(=O)N[C@@H](CCCNC(=N)N)C(=O)N[C@@H](CCCNC(=N)N)C(=O)N[C@@H](CCCCN)C(=O)N[C@@H](CCCCN)C(=O)O` (Decanoyl-RGRKGGRRKK-OH): the MIC in data set [1] came to 20 µM (≈ 27.1 µg/mL); in data set [2], 10 µM (≈ 13.5 µg/mL); in data set [4], 10 µM (≈ 13.5 µg/mL). In addition, the HC10 in data set [3] was more than 10000 µg/mL.
